What all share (type): cell-based
Experiment [1] has as its target T1, EGFR L858R (BaF3-L858R cells) (Homo sapiens, UniProt P00533, L858R).
T1 construct: host or cells: BaF3
Description: Cell degradation of EGFR, HTRF assay, BaF3-L858R cells. To be noted: 16 h treatment; for DC50: EGFR degradation; for Dmax: maximum percentage of degradation. The gist of the method:
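EGFR L858R levels measured by HTRF antibody pair in lysed BaF3-L858R cells after 16 h compound exposure (8-point 5-fold series from 10 uM final, 37° C). Degradation is relative to DMSO-only cells; DC50 fitted with Hill equation, Dmax taken as the largest percent loss.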
A general note: In TR-FRET formats the signal depends on donor and acceptor labels being close together.

Experiment [2] addresses T2, EGFR-L858R/C797S (H1975-clone #8 cells) (Homo sapiens, UniProt P00533, C797S/L858R).
T2 construct: expressed in transfected cells; host or cells: H1975 (endogenous EGFR knocked out, clone #8)
Description: Cell degradation of EGFR, HTRF assay, H1975-clone#8 (L858R/C797S) cells. To be noted: 16 h treatment; for DC50: EGFR degradation; for Dmax: maximum percentage of degradation.

In experiment [3] the target is T3, p-EGFR L858R (BaF3-L858R cells) (Homo sapiens, UniProt P00533, L858R).
T3 construct: host or cells: BaF3
Description: Cell p-EGFR inhibition assay, HTRF, BaF3-L858R cells. To be noted: 16 h treatment; for Imax (%): maximum percentage of pEGFR inhibition; for IC50: pEGFR inhibition. The essentials: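 BaF3-L858R cells treated 16 h at 37 °C, 5% CO2 with compound from 10 uM top, 5-fold dilutions, 8 doses, in 0.1% DMSO medium. Lysates read overnight by HTRF p-EGFR antibodies; IC50 fitted to four-parameter curve against DMSO high control.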

Experiment [4] addresses p-EGFR Del19/C797S (H1975-clone #23 cells) (Homo sapiens, UniProt P00533). Description: Cell p-EGFR inhibition assay, HTRF, H1975-clone#23 (DEL19/C797S) cells. As to conditions: 16 h treatment; for Imax (%): maximum percentage of pEGFR inhibition; for IC50: pEGFR inhibition. The gist of the method:
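Phospho-EGFR read by overnight HTRF on lysates, normalized to DMSO-treated high control; IC50, Hill slope and Imax fitted. Compounds were applied for 16 h (10 uM top, 5-fold steps, 8 doses) to an H1975 single clone carrying only exogenous Del19/C797S EGFR after sgRNA knockout of endogenous copies.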

SMILES strings stand for the structures.

Usually DC50 stands for the concentration at which degradation of the target reaches its halfway point. A higher DC50 goes with a less potent degrader. Broadly, the Dmax is the largest share of the target that was removed. Read a low Dmax as shallow degradation. As usually defined, the IC50 is the midpoint of a concentration-inhibition curve. High values mean lower potency, low ones higher potency. On to `Cc1cc2cc(n1)-c1c(C)nn(C)c1OC[C@H]1CC[C@H](C1)CN1/C(=N/C2=O)Nc2ccc(N3CCN(CC4CN(c5cc(F)c([C@H]6CCC(=O)NC6=O)c(F)c5)C4)[C@H](C(F)F)C3)cc21` [Example 205, (R)-3-(4-(3-(((S)-2-(difluoromethyl)-4-((7R,7^3S,E)-1^1,1^3,2^6-trimethyl-3-oxo-5^2,5^3-dihydro-1^1H,5^1H-9-oxa-4-aza-5(2,1)-benzo[d]imidazola-2(2,4)-pyridina-1(4,5)-pyrazola-7(1,3)-cyclopentanacyclononaphane-5^6-yl)piperazin-1-yl)methyl)azetidin-1-yl)-2,6-difluorophenyl)piperidine-2,6-dione], for which, in experiment [1], the DC50 was 5.75 nM and the Dmax stood at 90.3%. In experiment [2], this compound registered a DC50 of 3.05 nM and a Dmax of 85.8%. Besides, in experiment [3], the “Imax (%)” value is reported as 92.5% and the 50% inhibitory concentration (IC50) was 1.22 nM. Besides, in experiment [4], the “Imax (%)” value stood at 99.83% and the IC50 stood at 0.539 nM.
Take `COC[C@@H]1CN(c2ccc3c(c2)N2CC4CC[C@H](COc5c(cnn5C)-c5cc(cc(C)n5)C(=O)/N=C/2N3)C4)CCN1C1CCN(c2c(F)cc(NC3CCC(=O)NC3=O)cc2F)CC1` (stereo partly drawn) [Example 93, 3-((4-(4-((S)-4-((7^1R,7^3S,E)-1^1,2^6-dimethyl-3-oxo-5^2,5^3-dihydro-1^1H,5^1H-9-oxa-4-aza-5(2,1)-benzo[d]imidazola-2(2,4)-pyridina-1(4,5)-pyrazola-7(1,3)-cyclopentanacyclononaphane-5^6-yl)-2-(methoxymethyl)piperazin-1-yl)piperidin-1-yl)-3,5-difluorophenyl)amino)piperidine-2,6-dione]: in experiment [1], the DC50 worked out at 9.09 nM and the maximal degradation (Dmax) is 77.4%. For the same compound, in experiment [2], it took 7.66 nM to reach half-maximal degradation (DC50) and the Dmax was 83.8%. In experiment [3], the “Imax (%)” value stood at 96.9% and the 50% inhibitory concentration (IC50) amounted to 19.6 nM. In addition, in experiment [4], the “Imax (%)” value came out at 100.3% and the IC50 amounted to 2 nM.
For the compound `Cc1cc2cc(n1)-c1cnn(C)c1OC[C@H]1CCC(C1)CN1/C(=N/C2=O)Nc2ccc(N3CCN(CCc4cc(F)c(C5CCC(=O)NC5=O)nc4C)CC3)cc21` (stereo partly drawn) [Example 78, 3-(5-(2-(4-((7^1R,7^3S,E)-1^1,2^6-dimethyl-3-oxo-5^2,5^3-dihydro-1^1H,5^1H-9-oxa-4-aza-5(2,1)-benzo[d]imidazola-2(2,4)-pyridina-1(4,5)-pyrazola-7(1,3)-cyclopentanacyclononaphane-5^6-yl)piperazin-1-yl)ethyl)-3-fluoro-6-methylpyridin-2-yl)piperidine-2,6-dione], the half-maximal degradation concentration (DC50) in experiment [1] was 3.68 nM; in experiment [2], 4.18 nM. Also, the maximal degradation (Dmax) in experiment [1] stood at 87.8%; in experiment [2], 65.5%. Also, the “Imax (%)” value in experiment [3] came to 92.5%; in experiment [4] it was 100.6%. Besides, the IC50 in experiment [3] was 16.9 nM; in experiment [4], 1.2 nM.
In experiment [1], `Cc1cc2cc(n1)-c1c(C)nn(C)c1OC[C@H]1CC[C@H](C1)CN1/C(=N/C2=O)Nc2ccc(N3CCC(NC4CN(c5c(F)cc(OC6CCC(=O)NC6=O)cc5F)C4)CC3)cc21` (stereo partly drawn) [Example 158, 3-(3,5-difluoro-4-(3-((1-((7^1R,7^3S,E)-1^1,1^3,2^6-trimethyl-3-oxo-5^2,5^3-dihydro-1^1H,5^1H-9-oxa-4-aza-5(2,1)-benzo[d]imidazola-2(2,4)-pyridina-1(4,5)-pyrazola-7(1,3)-cyclopentanacyclononaphane-5^6-yl)piperidin-4-yl)amino)azetidin-1-yl)phenoxy)piperidine-2,6-dione] came in with a 50% degradation concentration (DC50) of 3.75 nM and a Dmax of 79.8%. In experiment [2], this compound showed a half-maximal degradation concentration (DC50) of 4.39 nM and a Dmax of 77.3%. Also, in experiment [3], the “Imax (%)” value is reported as 95.45% and the IC50 was determined as 72.6 nM. In experiment [4], the “Imax (%)” value is recorded as 100.46% and 3.65 nM corresponded to half-maximal inhibition (IC50).
For `COC[C@H]1CN(c2ccc3c(c2)N2C[C@@H]4CC[C@H](COc5c(c(C)nn5C)-c5cc(cc(C)n5)C(=O)/N=C/2N3)C4)CCN1C1CN(C2CCN(c3cc(F)c([C@H]4CCC(=O)NC4=O)c(F)c3)CC2)C1` [Example 206, (R)-3-(2,6-difluoro-4-(4-(3-((R)-2-(methoxymethyl)-4-((7R,7^3S,E)-1^1,1^32^6-trimethyl-3-oxo-5^2,5^3-dihydro-1^1H,5^1H-9-oxa-4-aza-5(2,1)-benzo[d]imidazola-2(2,4)-pyridina-1(4,5)-pyrazola-7(1,3)-cyclopentanacyclononaphane-5^6-yl)piperazin-1-yl)azetidin-1-yl)piperidin-1-yl)phenyl)piperidine-2,6-dione], in experiment [1], the DC50 was determined as 1.1 nM and the greatest degradation seen (Dmax) is 92.1%. In experiment [2], this compound gave a 50% degradation concentration (DC50) of 0.54 nM and a maximal degradation (Dmax) of 90.7%. Besides, in experiment [3], the “Imax (%)” value was 94.08% and the 50% inhibitory concentration (IC50) was 1.17 nM. For the same compound, in experiment [4], the “Imax (%)” value is reported as 99.52% and inhibition was half-maximal at 0.851 nM (IC50).
On to `Cc1cc2cc(n1)-c1cnn(C)c1OC[C@H]1CCC(C1)CN1/C(=N/C2=O)Nc2ccc(N3CCC(CN4CC(Nc5cc(F)c([C@H]6CCC(=O)NC6=O)c(F)c5)C4)CC3)cc21` [Example 132, (R)-3-(4-((1-((1-((7^1R,7^3S,E)-1^1,2^6-dimethyl-3-oxo-5^2,5^3-dihydro-1^1H,5^1H-9-oxa-4-aza-5(2,1)-benzo[d]imidazola-2(2,4)-pyridina-1(4,5)-pyrazola-7(1,3)-cyclopentanacyclononaphane-5^6-yl)piperidin-4-yl)methyl)azetidin-3-yl)amino)-2,6-difluorophenyl)piperidine-2,6-dione], for which the DC50 worked out at 3.22 nM in experiment [1] and 2.05 nM in experiment [2]. Further, the Dmax in experiment [1] was found to be 81%; in experiment [2], 66%. Further, the “Imax (%)” value in experiment [3] was 97.32%; in experiment [4], 100.62%. Further, the half-maximal inhibitory concentration (IC50) in experiment [3] was 62.7 nM; in experiment [4], 0.63 nM.
`COc1cc2c(cc1N1CCN(C3CCN(c4cc(F)c([C@H]5CCC(=O)NC5=O)c(F)c4)CC3)CC1)N1C[C@@H]3CC[C@H](COc4c(c(C)nn4C)-c4cc(cc(C)n4)C(=O)/N=C/1N2)C3` [Example 152, (R)-3-(2,6-difluoro-4-(4-(4-((7^1R,7^3S,E)-5^5-methoxy-1^1,1^3,2^6-trimethyl-3-oxo-5^2,5^3-dihydro-1^1H,5^1H-9-oxa-4-aza-5(2,1)-benzo[d]imidazola-2(2,4)-pyridina-1(4,5)-pyrazola-7(1,3)-cyclopentanacyclononaphane-5^6-yl)piperazin-1-yl)piperidin-1-yl)phenyl)piperidine-2,6-dione]: in experiment [1], it took 1.19 nM to reach half-maximal degradation (DC50) and the Dmax worked out at 86.6%. Besides, in experiment [2], it took 1.28 nM to reach half-maximal degradation (DC50) and the Dmax was 88.7%. Also, in experiment [3], the “Imax (%)” value was 95.61% and the IC50 is 15 nM. Also, in experiment [4], the “Imax (%)” value is 100.06% and the midpoint of inhibition, the IC50, lay at 2.46 nM.
As to `COC[C@@H]1CN(c2ccc3c(c2)N2C[C@@H]4CC[C@H](COc5c(c(C)nn5CCO)-c5cc(cc(C)n5)C(=O)/N=C/2N3)C4)CCN1C1CCN(c2cc(F)c([C@H]3CCC(=O)NC3=O)c(F)c2)CC1` [Example 157, (R)-3-(2,6-difluoro-4-(4-((S)-4-((7^1R,7^3S,E)-1^1-(2-hydroxyethyl)-1^3,2^6-dimethyl-3-oxo-5^2,5^3-dihydro-1^1H,5^1H-9-oxa-4-aza-5(2,1)-benzo[d]imidazola-2(2,4)-pyridina-1(4,5)-pyrazola-7(1,3)-cyclopentanacyclononaphane-5^6-yl)-2-(methoxymethyl)piperazin-1-yl)piperidin-1-yl)phenyl)piperidine-2,6-dione], in experiment [1], the DC50 came to 2.03 nM and the Dmax was 85.8%. Moreover, in experiment [2], the DC50 was found to be 1.88 nM and the maximal degradation (Dmax) turned out to be 88%. Besides, in experiment [3], the “Imax (%)” value worked out at 96.89% and the midpoint of inhibition, the IC50, lay at 2.87 nM. For the same compound, in experiment [4], the “Imax (%)” value came out at 100.52% and the IC50 came out at 1.1 nM.
On to `COC[C@@H]1CN(c2cc3c(cc2F)N/C2=N\C(=O)c4cc(C)nc(c4)-c4c(C)nn(C)c4OC[C@H]4CC[C@H](C4)CN23)CCN1C1CCN(c2cc(F)c([C@H]3CCC(=O)NC3=O)c(F)c2)CC1` [Example 169, (R)-3-(2,6-difluoro-4-(4-((S)-4-((7^1R,7^3S,E)-5^5-fluoro-1^1,1^3,2^6-trimethyl-3-oxo-5^2,5^3-dihydro-1^1H,5^1H-9-oxa-4-aza-5(2,1)-benzo[d]imidazola-2(2,4)-pyridina-1(4,5)-pyrazola-7(1,3)-cyclopentanacyclononaphane-5^6-yl)-2-(methoxymethyl)piperazin-1-yl)piperidin-1-yl)phenyl)piperidine-2,6-dione], for which the results for the half-maximal degradation concentration (DC50) in experiment [1] and in experiment [2] were 2.62 nM and 2.81 nM, respectively. The Dmax was 86.5% in experiment [1] and 91.6% in experiment [2]. Also, the “Imax (%)” value was determined as 100.12% in experiment [3] and 102.95% in experiment [4]. Also, the values for the IC50 in experiment [3] and in experiment [4] were 8.76 nM and 2.5 nM, respectively.

The values above are taken from patent US20240425523A1, “Compounds for the Degradation of EGFR Kinase” (Beigene Switzerland GMBH, priority 2023, published 2024).
